According to PMC8429728, “TNK1 is a ubiquitin-binding and 14-3-3-regulated kinase that can be targeted to block tumor growth” (Nature Communications, 2021):

Key:
Experiment in all cases: biochemical
Parameters in all cases: Reaction Biology kinase panel, control compounds in 10-dose IC50 mode at Km ATP
TTBK1 = TTBK1 (Homo sapiens, UniProt Q5TCY1); details: control compound, Km ATP; read-out: IC50 (M) Control Cmpd
TTBK2 = TTBK2 (Homo sapiens, UniProt Q6IQ55)
DYRK4 = molecular target: T1, DYRK4 (Homo sapiens, UniProt Q9NR20)
T1 sequence (Q9NR20 1-520): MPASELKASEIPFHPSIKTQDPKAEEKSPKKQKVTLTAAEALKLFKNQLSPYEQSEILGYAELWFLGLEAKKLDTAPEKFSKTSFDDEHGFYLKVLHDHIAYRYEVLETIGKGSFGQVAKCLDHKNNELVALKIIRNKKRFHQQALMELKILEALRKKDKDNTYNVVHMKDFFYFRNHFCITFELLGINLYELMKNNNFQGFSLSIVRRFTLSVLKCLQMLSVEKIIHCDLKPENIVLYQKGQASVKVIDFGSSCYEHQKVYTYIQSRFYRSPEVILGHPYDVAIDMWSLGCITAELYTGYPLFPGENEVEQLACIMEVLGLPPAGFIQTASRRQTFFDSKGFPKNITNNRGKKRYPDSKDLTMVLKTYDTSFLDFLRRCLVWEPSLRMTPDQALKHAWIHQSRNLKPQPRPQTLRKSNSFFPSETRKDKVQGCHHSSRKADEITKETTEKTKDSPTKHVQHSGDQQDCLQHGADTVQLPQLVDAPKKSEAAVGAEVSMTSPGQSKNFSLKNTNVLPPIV

CK2a = molecular target: T2, CK2a (Homo sapiens, UniProt P68400)
T2 construct: gene CSNK2A1

ZAK/MLTK = molecular target: T3, ZAK/MLTK (Homo sapiens, UniProt Q9NYL2)
T3 construct: gene MAP3K20

ARAF = molecular target: T4, ARAF (Homo sapiens, UniProt P10398)
T4 sequence (P10398 1-606): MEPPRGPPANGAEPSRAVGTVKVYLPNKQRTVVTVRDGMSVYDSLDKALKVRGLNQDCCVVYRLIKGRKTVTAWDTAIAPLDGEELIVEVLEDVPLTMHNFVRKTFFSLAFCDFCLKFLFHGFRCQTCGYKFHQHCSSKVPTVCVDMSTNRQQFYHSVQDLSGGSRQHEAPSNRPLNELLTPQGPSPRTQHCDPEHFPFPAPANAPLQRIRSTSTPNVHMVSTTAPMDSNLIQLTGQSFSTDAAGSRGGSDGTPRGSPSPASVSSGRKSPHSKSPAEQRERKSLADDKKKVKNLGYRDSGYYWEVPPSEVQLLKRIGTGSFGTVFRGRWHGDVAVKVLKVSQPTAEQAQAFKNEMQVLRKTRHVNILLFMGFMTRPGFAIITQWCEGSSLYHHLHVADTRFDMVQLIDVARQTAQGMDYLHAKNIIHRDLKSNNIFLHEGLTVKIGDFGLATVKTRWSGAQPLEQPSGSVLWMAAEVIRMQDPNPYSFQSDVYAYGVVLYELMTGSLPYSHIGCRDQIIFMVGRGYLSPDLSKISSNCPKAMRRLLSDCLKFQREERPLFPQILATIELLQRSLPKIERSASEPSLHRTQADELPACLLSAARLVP

ERK1 = molecular target: T5, ERK1 (Homo sapiens, UniProt P27361)
T5 construct: gene MAPK3

TGFBR2 = TGFBR2 (Homo sapiens, UniProt P37173)
HIPK1 = HIPK1 (Homo sapiens, UniProt Q86Z02)
HPK1/MAP4K1 = HPK1/MAP4K1 (Homo sapiens, UniProt Q92918)
VRK2 = VRK2 (Homo sapiens, UniProt Q86Y07)
LOK/STK10 = LOK/STK10 (Homo sapiens, UniProt O94804)
COT1/MAP3K8 = COT1/MAP3K8 (Homo sapiens, UniProt P41279)
PKMYT1 = molecular target: T6, PKMYT1 (Homo sapiens, UniProt Q99640)
T6 sequence (Q99640 1-499): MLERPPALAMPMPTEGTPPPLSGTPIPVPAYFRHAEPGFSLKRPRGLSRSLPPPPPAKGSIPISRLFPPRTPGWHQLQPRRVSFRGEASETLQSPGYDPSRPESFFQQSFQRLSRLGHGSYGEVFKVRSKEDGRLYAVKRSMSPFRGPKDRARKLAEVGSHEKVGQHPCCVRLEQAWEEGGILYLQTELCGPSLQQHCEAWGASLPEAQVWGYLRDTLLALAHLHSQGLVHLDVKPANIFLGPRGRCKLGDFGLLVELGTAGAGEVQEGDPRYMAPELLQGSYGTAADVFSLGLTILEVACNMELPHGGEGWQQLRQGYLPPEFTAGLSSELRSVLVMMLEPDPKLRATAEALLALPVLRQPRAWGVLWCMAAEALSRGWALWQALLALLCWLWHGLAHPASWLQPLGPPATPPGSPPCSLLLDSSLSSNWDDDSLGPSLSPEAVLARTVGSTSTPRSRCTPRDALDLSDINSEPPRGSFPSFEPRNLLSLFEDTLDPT

VRK2, sequence (Q86Y07 whole entry): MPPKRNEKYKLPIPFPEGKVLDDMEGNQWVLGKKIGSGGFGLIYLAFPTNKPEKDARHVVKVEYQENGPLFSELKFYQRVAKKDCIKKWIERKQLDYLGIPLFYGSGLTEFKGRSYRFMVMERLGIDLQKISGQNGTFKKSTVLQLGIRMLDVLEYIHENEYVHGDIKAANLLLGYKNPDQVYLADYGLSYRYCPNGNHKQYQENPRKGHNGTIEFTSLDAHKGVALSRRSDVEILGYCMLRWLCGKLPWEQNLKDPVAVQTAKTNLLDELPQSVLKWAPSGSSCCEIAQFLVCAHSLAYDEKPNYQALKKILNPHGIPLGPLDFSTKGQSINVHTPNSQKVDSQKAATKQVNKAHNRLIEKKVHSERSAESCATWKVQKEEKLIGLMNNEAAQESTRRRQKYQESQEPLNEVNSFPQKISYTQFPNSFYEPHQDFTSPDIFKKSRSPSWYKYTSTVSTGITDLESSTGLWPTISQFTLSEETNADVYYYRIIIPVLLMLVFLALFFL
TTBK1, sequence (Q5TCY1 whole entry): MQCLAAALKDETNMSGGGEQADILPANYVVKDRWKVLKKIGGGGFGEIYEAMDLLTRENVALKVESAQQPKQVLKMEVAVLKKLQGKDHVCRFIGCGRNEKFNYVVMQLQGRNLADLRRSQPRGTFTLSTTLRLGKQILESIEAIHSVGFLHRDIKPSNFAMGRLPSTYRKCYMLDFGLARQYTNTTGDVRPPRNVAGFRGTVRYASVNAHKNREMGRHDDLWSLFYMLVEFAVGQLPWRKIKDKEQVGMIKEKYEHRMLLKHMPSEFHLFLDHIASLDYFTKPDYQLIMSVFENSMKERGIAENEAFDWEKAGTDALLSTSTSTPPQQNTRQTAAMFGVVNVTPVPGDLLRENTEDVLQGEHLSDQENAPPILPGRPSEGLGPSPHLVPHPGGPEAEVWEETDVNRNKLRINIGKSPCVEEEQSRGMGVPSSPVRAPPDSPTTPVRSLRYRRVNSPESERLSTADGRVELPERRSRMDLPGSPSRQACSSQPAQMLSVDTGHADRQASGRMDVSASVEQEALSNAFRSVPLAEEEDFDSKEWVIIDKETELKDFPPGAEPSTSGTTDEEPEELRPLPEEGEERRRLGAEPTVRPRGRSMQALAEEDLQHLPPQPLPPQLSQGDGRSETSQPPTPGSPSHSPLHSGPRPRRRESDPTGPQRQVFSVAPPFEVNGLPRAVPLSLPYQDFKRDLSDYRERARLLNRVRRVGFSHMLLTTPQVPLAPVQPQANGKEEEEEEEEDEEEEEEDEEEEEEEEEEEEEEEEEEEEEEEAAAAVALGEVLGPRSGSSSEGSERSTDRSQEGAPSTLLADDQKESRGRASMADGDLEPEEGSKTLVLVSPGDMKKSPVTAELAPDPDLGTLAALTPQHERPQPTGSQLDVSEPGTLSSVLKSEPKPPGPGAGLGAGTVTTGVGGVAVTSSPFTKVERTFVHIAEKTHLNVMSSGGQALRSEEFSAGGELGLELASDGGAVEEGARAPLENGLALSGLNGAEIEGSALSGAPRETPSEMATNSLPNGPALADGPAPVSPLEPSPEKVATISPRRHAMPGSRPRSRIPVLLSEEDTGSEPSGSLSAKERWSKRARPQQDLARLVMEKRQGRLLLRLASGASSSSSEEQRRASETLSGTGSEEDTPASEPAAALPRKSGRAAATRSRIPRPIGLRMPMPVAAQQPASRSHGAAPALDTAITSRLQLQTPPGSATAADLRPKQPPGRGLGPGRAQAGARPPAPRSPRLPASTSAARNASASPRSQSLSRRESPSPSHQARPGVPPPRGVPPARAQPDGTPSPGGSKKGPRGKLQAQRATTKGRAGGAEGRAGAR
LOK/STK10, sequence (O94804 whole entry): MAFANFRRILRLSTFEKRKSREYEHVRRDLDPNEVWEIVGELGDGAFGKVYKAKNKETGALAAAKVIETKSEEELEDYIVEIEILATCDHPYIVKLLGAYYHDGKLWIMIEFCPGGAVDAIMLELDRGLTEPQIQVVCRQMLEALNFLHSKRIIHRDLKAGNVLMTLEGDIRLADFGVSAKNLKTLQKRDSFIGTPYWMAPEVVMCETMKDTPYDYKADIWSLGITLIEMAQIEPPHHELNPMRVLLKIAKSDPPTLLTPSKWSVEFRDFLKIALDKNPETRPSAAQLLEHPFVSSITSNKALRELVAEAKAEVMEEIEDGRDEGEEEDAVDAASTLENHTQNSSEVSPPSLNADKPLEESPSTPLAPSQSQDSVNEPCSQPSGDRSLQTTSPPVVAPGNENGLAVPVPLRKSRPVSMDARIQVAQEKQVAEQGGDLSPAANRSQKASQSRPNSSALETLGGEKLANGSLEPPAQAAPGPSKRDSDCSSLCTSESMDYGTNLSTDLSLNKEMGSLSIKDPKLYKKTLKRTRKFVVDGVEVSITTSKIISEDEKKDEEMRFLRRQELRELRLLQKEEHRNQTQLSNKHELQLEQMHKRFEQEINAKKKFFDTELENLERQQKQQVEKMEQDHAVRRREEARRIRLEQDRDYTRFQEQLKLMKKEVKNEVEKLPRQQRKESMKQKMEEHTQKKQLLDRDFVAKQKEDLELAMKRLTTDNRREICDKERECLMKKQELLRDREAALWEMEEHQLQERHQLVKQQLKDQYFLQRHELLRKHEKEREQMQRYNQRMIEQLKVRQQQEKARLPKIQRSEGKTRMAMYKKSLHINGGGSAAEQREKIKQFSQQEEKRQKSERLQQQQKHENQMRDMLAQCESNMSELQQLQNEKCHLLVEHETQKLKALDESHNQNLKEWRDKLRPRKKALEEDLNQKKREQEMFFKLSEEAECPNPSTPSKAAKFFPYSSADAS
TTBK2, sequence (Q6IQ55 whole entry): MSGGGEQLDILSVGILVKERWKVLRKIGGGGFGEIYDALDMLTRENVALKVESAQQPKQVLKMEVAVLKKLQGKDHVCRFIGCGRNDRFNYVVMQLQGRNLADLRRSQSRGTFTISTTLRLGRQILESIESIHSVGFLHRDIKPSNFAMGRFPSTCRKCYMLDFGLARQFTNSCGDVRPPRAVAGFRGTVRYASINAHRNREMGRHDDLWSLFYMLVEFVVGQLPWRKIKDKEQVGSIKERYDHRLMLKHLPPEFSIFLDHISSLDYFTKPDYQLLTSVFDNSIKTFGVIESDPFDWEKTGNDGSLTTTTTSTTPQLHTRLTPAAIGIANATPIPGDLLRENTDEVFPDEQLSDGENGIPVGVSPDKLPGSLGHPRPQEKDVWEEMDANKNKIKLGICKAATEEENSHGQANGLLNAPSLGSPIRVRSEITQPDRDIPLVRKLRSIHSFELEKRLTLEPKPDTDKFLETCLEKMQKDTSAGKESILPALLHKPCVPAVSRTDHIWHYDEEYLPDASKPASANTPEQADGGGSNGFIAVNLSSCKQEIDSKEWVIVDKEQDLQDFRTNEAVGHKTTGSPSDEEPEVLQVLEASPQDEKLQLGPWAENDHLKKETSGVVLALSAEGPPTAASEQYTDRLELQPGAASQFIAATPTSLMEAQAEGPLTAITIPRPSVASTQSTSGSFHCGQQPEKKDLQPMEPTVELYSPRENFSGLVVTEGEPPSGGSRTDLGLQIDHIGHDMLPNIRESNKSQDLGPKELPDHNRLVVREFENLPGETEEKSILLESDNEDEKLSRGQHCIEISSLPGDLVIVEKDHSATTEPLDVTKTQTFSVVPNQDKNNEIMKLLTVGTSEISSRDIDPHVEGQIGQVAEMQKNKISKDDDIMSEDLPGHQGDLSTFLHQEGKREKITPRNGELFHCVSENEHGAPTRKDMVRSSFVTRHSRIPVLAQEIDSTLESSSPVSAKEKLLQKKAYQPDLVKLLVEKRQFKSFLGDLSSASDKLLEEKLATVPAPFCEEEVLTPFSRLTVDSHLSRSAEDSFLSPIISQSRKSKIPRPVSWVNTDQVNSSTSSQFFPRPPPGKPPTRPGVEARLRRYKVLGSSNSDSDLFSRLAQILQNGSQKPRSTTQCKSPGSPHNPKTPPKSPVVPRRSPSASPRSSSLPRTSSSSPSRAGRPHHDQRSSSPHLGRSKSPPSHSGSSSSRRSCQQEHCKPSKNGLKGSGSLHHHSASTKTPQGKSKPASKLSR
TGFBR2, sequence (P37173 whole entry): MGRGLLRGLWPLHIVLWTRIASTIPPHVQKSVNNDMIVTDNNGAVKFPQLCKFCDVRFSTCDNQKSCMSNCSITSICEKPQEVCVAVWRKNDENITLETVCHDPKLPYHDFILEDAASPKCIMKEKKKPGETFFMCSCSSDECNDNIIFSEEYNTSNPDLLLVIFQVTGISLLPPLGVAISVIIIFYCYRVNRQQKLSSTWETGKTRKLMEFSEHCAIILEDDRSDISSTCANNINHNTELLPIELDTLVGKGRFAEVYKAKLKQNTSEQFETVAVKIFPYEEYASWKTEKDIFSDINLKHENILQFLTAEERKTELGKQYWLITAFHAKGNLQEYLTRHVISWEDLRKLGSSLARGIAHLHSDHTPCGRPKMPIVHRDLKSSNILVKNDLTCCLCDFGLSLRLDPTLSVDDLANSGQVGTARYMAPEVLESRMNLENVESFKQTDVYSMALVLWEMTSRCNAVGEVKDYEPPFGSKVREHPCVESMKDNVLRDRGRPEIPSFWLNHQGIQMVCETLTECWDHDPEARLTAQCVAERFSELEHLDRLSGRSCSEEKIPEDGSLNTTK
COT1/MAP3K8, sequence (P41279 whole entry): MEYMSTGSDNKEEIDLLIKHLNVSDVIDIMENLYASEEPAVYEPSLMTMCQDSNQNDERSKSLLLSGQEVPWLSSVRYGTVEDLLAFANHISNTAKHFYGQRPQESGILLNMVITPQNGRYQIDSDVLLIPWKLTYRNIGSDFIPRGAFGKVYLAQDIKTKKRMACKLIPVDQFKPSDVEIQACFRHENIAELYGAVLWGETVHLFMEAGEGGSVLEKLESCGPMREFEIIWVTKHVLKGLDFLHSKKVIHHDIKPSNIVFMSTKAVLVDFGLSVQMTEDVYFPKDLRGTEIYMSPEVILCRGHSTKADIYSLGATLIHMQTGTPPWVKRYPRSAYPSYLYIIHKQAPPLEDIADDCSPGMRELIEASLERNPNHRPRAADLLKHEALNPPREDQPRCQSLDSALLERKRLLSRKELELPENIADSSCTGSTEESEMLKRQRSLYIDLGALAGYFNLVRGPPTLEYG

`Oc1ccc(-c2nc(-c3ccncc3)c(-c3ccc(F)cc3)[nH]2)cc1` [SB202190] showed an IC50 (TTBK1) of 1.31e-05 M and an IC50 (TTBK2) of 5470 nM.
In the case of `O=C1Nc2ccc(I)cc2/C1=C/c1cc(Br)c(O)c(Br)c1` [GW5074], the IC50 (DYRK4) is reported as 1610 nM, the IC50 (CK2a) is reported as 231 nM and the IC50 (ZAK/MLTK) is reported as 3110 nM. The IC50 (ARAF) was 15.1 nM.
With `O=C(Nc1ccc2[nH]nc(-c3ccncc3)c2c1)[C@@H]1CCN(CC(=O)N2CCN(c3ccc(-c4ncccn4)cc3)CC2)C1` [SCH772984] the IC50 (ERK1) was 9.34 nM.
With `c1ccc2c(-c3cnn4cc(-c5ccc(N6CCNCC6)cc5)cnc34)ccnc2c1` [LDN193189] the IC50 (TGFBR2) was 54.8 nM.
`Cn1cc(C2=C(c3cn(CCCSC(=N)N)c4ccccc34)C(=O)NC2=O)c2ccccc21` [RO-31-8220] gave an IC50 (HIPK1) of 3060 nM, an IC50 (HPK1/MAP4K1) of 51 nM and an IC50 (VRK2) of 5730 nM. For the same compound, the IC50 (LOK/STK10) was 141 nM and the IC50 (COT1/MAP3K8) was 10200 nM.
`CN[C@@H]1C[C@H]2O[C@@](C)([C@@H]1OC)n1c3ccccc3c3c4c(c5c6ccccc6n2c5c31)C(=O)NC4` [STAUROSPORINE] gave an IC50 (PKMYT1) of 10.4 nM.
